Earlier results as cited in patent US20220016058A1, “PHARMACEUTICAL COMPOSITION CONTAINING TAMSULOSIN HYDROCHLORIDE WITH EXCELLENT ACID RESISTANCE AND PREPARATION METHOD THEREFOR” (HANMI PHARM. CO., LTD., priority 2018, published 2022).
Where a name gives a salt, the structure may show the parent alone.

- Solubility in water: dissolving a little in water
SMILES: CCOc1ccccc1OCCN[C@H](C)Cc1ccc(OC)c(S(N)(=O)=O)c1 [tamsulosin hydrochloride, Tamsulosin hydrochloride]
